Experimental data as given in article PMC7248880, “Preclinical Incorporation Dosimetry of [^18F]FACH—A Novel ^18F-Labeled MCT1/MCT4 Lactate Transporter Inhibitor for Imaging Cancer Metabolism with PET” (Molecules, 2020).

Assay: Vital sign monitoring after iv injection
Assay type: in vivo
Settings: iv 156 ± 54 MBq (0.63 ± 0.49 µg), anesthetized piglets
Text: The radiation safety of the newly developed MCT1/MCT4-specific radioligand [^18F]FACH was preclinically investigated. […] Afterwards, volumes of interest (VOIs) of the various organs were manually defined using the respective whole-body CT dataset for anatomical orientation. The estimated TIACs were extrapolated to the human entity (Equation (2)), followed by estimation of the organ doses with OLINDA 2.1 and calculation of the effective dose using tissue weighting factors as published in Publication 103 of the International Commission of Radiation Protection (ICRP103). Finally, it can be concluded that [^18F]FACH is safe with respect to the radiation risk that is caused by its systemic application for PET studies. This supports and encourages the translation of this newly developed radiopharmaceutical to clinical study phases.
Three piglets (age: ~6 weeks, weight: ~13–15 kg) were fasted on the day of imaging and received an intranuscular. injection of 1 mL azaperone and 4 mL ketamine to introduce anesthesia. […] During narcosis, the animals maintained spontaneous respiration and no mandatory ventilation was applied. The subjects were sequentially imaged after an iv injection (contralateral ear vein) of 156 ± 54 MBq [^18F]FACH (0.63 ± 0.49 µg) in a PET/CT system (Biograph16, SIEMENS, Erlangen, Germany). […]

## CCCN(CCC[18F])c1ccc(/C=C(\C#N)C(=O)O)c(OC)c1 [[^18F]FACH, (E)-2-cyano-3-{4-[(3-[^18F]fluoropropyl)(propyl)amino]-2-methoxyphenyl}acrylic acid]
  adverse effects based on vital sign monitoring: no adverse effects were observed
